Measurements reported in PubChem BioAssay AID720513 (Broad Institute, 2013).
Results filed as inconclusive are left out.

tested on: U2OS PGC1a acetylation AlphaLISA, overnight; assay: PGC1a acetylation increase, cellular AlphaLISA – cell-based, cherry-picked samples, set 6, dose response (AID 720513);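 also: cells made to overexpress flag tagged PGC1a plus GCN5 acetyltransferase by viral infection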

Row | SMILES | AC40 [µM]
1 | CC(=O)Nc1ccc(NC(=O)CN(c2cccc([N+](=O)[O-])c2)S(C)(=O)=O)cc1 | 0.482
2 | Clc1ccc(-c2nnc(-c3ccccc3)nc2N2CCSCC2)cc1 | 17.7
3 | CCOC(=O)c1[nH]c(C)c(C(=O)Nc2cc(OC)ccc2OC)c1C | 13
4 | CCCOc1ccc(C(=O)Nc2cccnc2)cc1 | 2.52
5 | COc1cccc(-c2ccc(C3[C@@H]4CN(S(=O)(=O)c5cccc(OC)c5)C[C@H]3N4)cc2)c1 (stereo not given in full) | 10.5
6 | Cc1ccc2oc(-c3ccc(NC(=O)c4cccnc4)cc3)nc2c1 | 2.03
7 | CN(C(=O)C1CC1)C1CCS(=O)(=O)C1 (stereo not given) | 15.2
8 | COc1ccc(NC(=O)C2(C)Cc3c(-c4cccc(NC(C)=O)c4)ccnc3O2)cc1 (stereo not given) | 17.1
9 | OC[C@H]1O[C@@H](n2cnc3c(NCc4ccco4)ncnc32)[C@H](O)[C@@H]1O | 7.4
10 | CSCCC(c1nnnn1-c1c(C)cccc1C)N1CCC2(CC1)C(=O)NCN2c1ccccc1 (stereo not given) | 4.64
11 | Fc1ccc(CN(Cc2ccccc2)C(c2cccs2)c2nnnn2C2CCCCC2)cc1 (stereo not given) | 12.7
12 | COc1ccccc1-c1ccc2c(c1)C(C)(Cc1ccc(OC(F)(F)F)cc1)C(=O)N2 (stereo not given) | 2.47
13 | C[C@H](CO)N1C[C@H](C)[C@@H](CN(C)Cc2ccc3c(c2)OCO3)Oc2cc(Br)ccc2S1(=O)=O | 18.6
14 | Cc1cc(Cn2nc(C(=O)NCc3cccc(C(F)(F)F)c3)cc2-c2ccccc2)on1 | 5.81
15 | CCOC(=O)c1c(NC(=O)c2ccoc2C)sc2c1CCC2 | 13.9
16 | O=C1NC(=Nc2ccccc2Cl)S/C1=C\c1cccc([N+](=O)[O-])c1O | 10.6
17 | O=C(c1ccc(NC(=O)C2(c3ccccc3)CCOCC2)cc1)N1CCOCC1 | 16.6
18 | COc1ccccc1-c1ccc(C2[C@@H]3CN(Cc4cccc(F)c4)C[C@H]2N3)cc1 (stereo not given in full) | 7.21
19 | CCn1nc(C)c(CN2CCc3c([nH]c4ccccc34)C2C(C)(C)C)c1C (stereo not given) | 0.88
20 | CC(C)(C)c1ccc(NC(=O)N2CCCN(c3ccc([N+](=O)[O-])cn3)CC2)cc1 | 0.25

Row | SMILES | AC40 [µM]
21 | C[n+]1c2n(c3ccccc31)N=C(c1cc(C(C)(C)C)c(O)c(C(C)(C)C)c1)CS2 | 3.5
22 | O=C(CN1CCC(n2nnc3ccccc32)CC1)NCc1cccs1 | 1.67
23 | O=C(CCCCCN1C(=O)c2cccc3cccc(c23)C1=O)NCc1cccnc1 | 0.207
24 | COc1ccc(NC(=O)N2CCN(c3ccc([N+](=O)[O-])cc3)CC2)cc1 | 1.52
25 | COc1ccc(CC(=O)OCC(=O)NCc2ccco2)cc1 | 9.28
26 | CCO[C@H]1OC(C(=O)N2CCCCCCC2)=C[C@@H](C2CCCCC2)[C@@H]1CCCO | 1.96
27 | O=C1CC(Sc2nnc(-c3ccccc3O)o2)C(=O)N1c1ccccc1 (stereo not given) | 7.23
28 | O=C(NC(Nc1cc(C(F)(F)F)ccc1Cl)C(=O)c1ccccc1)c1ccccc1 (stereo not given) | 13.6
29 | O=C(Nc1c(F)cccc1F)c1ccc(-n2cncn2)nc1 | 9.12
30 | CCOC(=O)C(NC(=O)c1ccccc1OCC)(Nc1ncccn1)C(F)(F)F (stereo not given) | 1.32
31 | CCC(=O)Nc1ccc(C(=O)Cn2ncc(Cl)c(Cl)c2=O)cc1 | 1.63
32 | Cc1cccc2sc(N3CCN(C(=O)c4cccs4)CC3)nc12 | 16.7
33 | CC(=O)c1ccc(OCC(=O)OCC(=O)Nc2sccc2C(N)=O)cc1 | 6.46
34 | CC(=O)Nc1cc(C(=O)OCc2cccc([N+](=O)[O-])c2)ccc1C | 10.4
35 | O=C(Nc1ccc(-c2noc(-c3cccs3)n2)cc1)c1cccnc1 | 1.27
36 | CCOC(=O)C1=C[C@@H](C(C)(C)C)N(S(=O)(=O)c2ccc(C)cc2)[C@H]1c1cccc2ccccc12 | 0.543
37 | C[C@@H]1CN([C@@H](C)CO)C(=O)c2c(c3ccccc3n2C)-c2ccccc2CO[C@@H]1CN(C)C(=O)Nc1ccc2c(c1)OCO2 | 7.87
38 | Cc1cc(C)c2c(-n3cccc3)c(C(=O)NNS(=O)(=O)c3ccccc3)sc2n1 | 4.82
39 | O=C(Nc1ccccc1-c1ccccc1)NC1CC2CCCC(C1)N2Cc1ccc(F)cc1 (stereo not given) | 10.5
40 | CC(C)NC(=O)Nc1ccc2c(c1)C(=O)N([C@@H](C)CO)C[C@@H](C)[C@@H](CN(C)S(=O)(=O)c1ccccc1)OCCCC[C@H](C)O2 | 14.8
